Experimental data published in patent publication US8710049B2, “Diaminocyclohexane compounds and uses thereof” (Bristol-Myers Squibb Company, priority 2011, dated 2014).

Molecular target: T1, Y4 receptor (Homo sapiens, UniProt P50391)
Experiment: not given
Conditions: background statement; cited from earlier work

T1 sequence (P50391 whole entry): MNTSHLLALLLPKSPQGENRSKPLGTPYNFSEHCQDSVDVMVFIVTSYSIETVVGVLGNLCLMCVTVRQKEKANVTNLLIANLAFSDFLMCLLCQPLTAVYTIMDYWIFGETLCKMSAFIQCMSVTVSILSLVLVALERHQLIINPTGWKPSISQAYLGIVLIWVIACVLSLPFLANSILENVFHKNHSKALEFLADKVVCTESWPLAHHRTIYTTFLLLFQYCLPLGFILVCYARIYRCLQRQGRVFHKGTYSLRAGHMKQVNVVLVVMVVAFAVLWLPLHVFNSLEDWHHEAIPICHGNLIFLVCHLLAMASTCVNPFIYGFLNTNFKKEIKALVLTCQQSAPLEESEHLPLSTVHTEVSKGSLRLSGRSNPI

Row | Molecule | affinity for Y4 receptor
1 | PYY: naturally secreted 36 amino acid, C-terminally amidated PP-fold peptide | nanomolar affinity

Molecular target: T1, Y4 receptor
Experiment: NPY4 cAMP HTRF Agonist Assay
Type: cell-based
Parameters: expressed in transfected cells
Conditions: human Y4 stable CHO clonal cells; inhibitory cAMP assay with Forskolin and IBMX, 30 minutes at room temperature
Method: NPY4 cAMP HTRF Agonist Assay
The functionality of the compound at Y4 receptor was analyzed using an inhibitory cAMP assay (CISBIO, HTRF cAMP kit #62AM4PEC) to measure the Gi activation by Y4 agonism.
The human Y4 stable CHO clonal cells were maintained in culture medium (F-12 containing 10% Fetal Bovine Serum, […] GENETICIN®, […] Zeocin). Before the experiment, 5 μL of 1 uM Forskolin (Sigma, # F6886) and 100 uM IBMX (Sigma, #15879) in PBS buffer were added into 384-well plates (PE, Proxi-plate) that were pre-dotted with […] compounds. The cells were removed from the flasks by Cellstripper, counted and adjusted to 1.0×10^6 cells/mL in PBS buffer, and added 5 μL/well (5000 cells/well) into the above 384-well plates. The cells were then covered and incubated for 30 minutes at room temperature. After incubation, 5 μL/well of D2-conjugate in HTRF lysis buffer was first added, followed by adding 5 μL/well of anti-cAMP Cryptate in HTRF lysis buffer. The plates were incubated for another 1 hour at room temperature and read on the EnVision Multilabel Plate Reader.

Row | Molecule | EC50
2 | O=C(Nc1ccccc1)N[C@@H]1CCCC[C@H]1N[C@H]1CCCN(c2ccc([N+](=O)[O-])cc2)C1 [Example 1, 1-((1R,2R)-2-((S)-1-(4-Nitrophenyl)piperidin-3-ylamino)cyclohexyl)-3-phenyl urea] | 81 nM
3 | O=C(Nc1ccc(OC(F)(F)F)cc1)N[C@@H]1CCCC[C@H]1N[C@H]1CCCN(c2ccc([N+](=O)[O-])cc2)C1 [Example 3, 1-((1R,2R)-2-((S)-1-(4-Nitrophenyl)piperidin-3-ylamino)cyclohexyl)-3-(4-(trifluoromethoxy)phenyl)urea] | 46 nM
4 | O=C(Nc1ccc(OC(F)(F)F)cc1)N[C@@H]1CCCC[C@H]1N[C@H]1C[C@@H]2C[C@H]1N(c1ccc([N+](=O)[O-])cc1)C2 [Example 4, 1-((1R,2R)-2-((1R,4R,6S)-2-(4-Nitrophenyl)-2-azabicyclo[2.2.1]heptan-6-ylamino)cyclohexyl)-3-(4-(trifluoromethoxy)phenyl)urea] | 25 nM
5 | CCOC(=O)c1ccc(N2CC[C@H](N[C@@H]3CCCC[C@H]3NC(=O)OCc3ccccc3)C2)cc1 [Example 32, Ethyl 4-((S)-3-((1R,2R)-2-(benzyloxycarbonylamino)cyclohexylamino)pyrrolidin-1-yl)benzoate] | 540 nM
6 | N#Cc1cc(N2CCC[C@H](N[C@@H]3CCCC[C@H]3NC(=O)Nc3ccccc3)C2)ccn1 [Example 45, 1-((1R,2R)-2-((S)-1-(2-Cyanopyridin-4-yl)piperidin-3-ylamino)cyclohexyl)-3-phenylurea] | 1460 nM
7 | O=C(Nc1ccccc1)N[C@@H]1CCCC[C@H]1N[C@H]1CCCN(c2ccc([N+](=O)[O-])cc2)CC1 [Example 52, 1-((1R,2R)-2-((S)-1-(4-Nitrophenyl)azepan-4-ylamino)cyclohexyl)-3-phenylurea] | 2890 nM
8 | C[C@]1(N[C@@H]2CCCC[C@H]2NC(=O)OCc2ccccc2)CCCN(c2ccc([N+](=O)[O-])cc2)C1 [Example 58, Benzyl (1R,2R)-2-((S)-3-methyl-1-(4-nitrophenyl)piperidin-3-ylamino)cyclohexylcarbamate] | 10 nM
9 | O=C(Nc1cc(C(F)(F)F)cc(C(F)(F)F)c1)N[C@@H]1CCCC[C@H]1N[C@H]1CCCN(c2ccc(C(F)(F)F)cc2)C1 [Example 89] | 2340 nM

Results, then the molecule that gave them:

Row | EC50 | Molecule
10 | 72 nM | Cc1nnc(-c2ccc(N3CCC[C@H](N[C@@H]4CCCC[C@H]4NC(=O)OCc4ccccc4)C3)cc2)o1 [Example 7, Benzyl (1R,2R)-2-((S)-1-(4-(5-methyl-1,3,4-oxadiazol-2-yl)phenyl)piperidin-3-ylamino)cyclohexylcarbamate]
11 | 330 nM | Cn1cc(CC(=O)N[C@@H]2CCCC[C@H]2N[C@H]2CCCN(c3ccc(C#N)cc3)C2)c2ccccc21 [Example 10, N-((1R,2R)-2-((S)-1-(4-Cyanophenyl)piperidin-3-ylamino)cyclohexyl)-2-(1-methyl-1H-indol-3-yl)acetamide]
12 | 72 nM | N#Cc1ccc(N2CCC[C@H](N[C@@H]3CCCC[C@H]3NC(=O)OCc3ccc(OC(F)(F)F)cc3)C2)cc1 [Example 16, 4-(Trifluoromethoxy)benzyl (1R,2R)-2-((S)-1-(4-cyanophenyl)piperidin-3-ylamino)cyclohexylcarbamate]
13 | 575 nM | COc1ccc(COC(=O)N[C@@H]2CCCC[C@H]2N[C@H]2CCCN(c3ccc(C#N)cc3)C2)cc1 [Example 34, 4-Methoxybenzyl (1R,2R)-2-((S)-1-(4-cyanophenyl)piperidin-3-ylamino)cyclohexylcarbamate]
14 | 610 nM | N#Cc1ccc(N2CCC[C@H](N[C@@H]3CCCC[C@H]3NC(=O)Nc3cccc(O)c3)C2)cc1 [Example 36, 1-((1R,2R)-2-((S)-1-(4-Cyanophenyl)piperidin-3-ylamino)cyclohexyl)-3-(3-hydroxyphenyl)urea]
15 | 1400 nM | O=C(N[C@@H]1CCCC[C@H]1N[C@H]1CCCN(c2ccc(-c3nc4ccccc4o3)cc2)C1)OCc1ccccc1 [Example 43, Benzyl (1R,2R)-2-((S)-1-(4-(benzo[d]oxazol-2-yl)phenyl)piperidin-3-ylamino)cyclohexylcarbamate]
16 | 3620 nM | N#Cc1ccc(N2CCC[C@H](N[C@@H]3CCCC[C@H]3NC(=O)Nc3ccc(C(F)(F)F)cc3)C2)cc1 [Example 56, 1-((1R,2R)-2-((S)-1-(4-Cyanophenyl)piperidin-3-ylamino)cyclohexyl)-3-(4-(trifluoromethyl)phenyl)urea]
17 | 515 nM | Cc1ccc(COC(=O)N[C@@H]2CCCC[C@H]2N[C@H]2CCCN(c3ccc(C(F)(F)F)cc3)C2)cc1 [Example 63]
